For 1 molecule, inhibition and EC50 results are on record in publication PMC12412615, “Tailored SirReal-type inhibitors enhance SIRT2 inhibition through ligand stabilization and disruption of NAD^+ co-factor binding” (RSC Medicinal Chemistry, 2025).

A word on the inhibition: it is the change of the read-out against control, counted positive when it falls. The EC50 is the concentration needed to bring the measured effect to its halfway point.

Assay [1] deals with T1, human SIRT5 (Homo sapiens, UniProt Q9NXA8).
T1 construct: purchased Reaction Biology Corporation (Malvern, USA), contract assay
T1 sequence (Q9NXA8 37-310): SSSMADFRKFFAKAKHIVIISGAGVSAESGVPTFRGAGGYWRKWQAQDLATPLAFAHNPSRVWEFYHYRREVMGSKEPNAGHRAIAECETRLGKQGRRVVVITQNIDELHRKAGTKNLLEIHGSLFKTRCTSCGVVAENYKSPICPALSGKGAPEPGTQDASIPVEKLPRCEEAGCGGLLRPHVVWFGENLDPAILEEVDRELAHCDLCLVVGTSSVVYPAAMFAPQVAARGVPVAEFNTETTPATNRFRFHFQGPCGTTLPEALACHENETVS
Briefly: Fluorescence-based sirtuin subtype selectivity assay, SIRT5, single dose 50 μM. The class given is biochemical. The conditions noted are these: 50 μM compound; mean, n = 2. The protocol: IC50 values against SIRT2 are given as mean with standard deviations (n = 3). Inhibition percentages at 50 μM for SIRT1, 3 and 5 are given as mean without standard deviations (n = 2)
The determination of subtype selectivity against SIRT1, 3 and 5 was performed by measuring the residual enzyme activity after treatment with the corresponding inhibitor at a fixed concentration of 50 μM and subsequent calculation of the percentage inhibition.
The determination of inhibitory activity on the corresponding sirtuin enzymes was carried out based on a fluorescence-based assay commissioned by Reaction Biology Corporation (Malvern, USA) following an internal experimental protocol. Test substances were prepared in DMSO, delivered into the respective enzyme mixture (prepared with reaction buffer: Tris-HCl, pH = 8) and incubated for 10 minutes at 30 °C. Subsequently the substrate mixture (NAD^+ and a 7-amino-4-methylcoumarin-based fluorogenic peptide substrate) was added to initiate the deacetylation reaction. After 2 hours incubation at 30 °C, 2 mM nicotinamide (universal sirtuin inhibitor, to stop the reaction) and protease-based developer (to generate fluorescence by the cleavage of 7-amino-4-methylcoumarin) was added. At 30 °C 1 hour later, the respective fluorescence was measured (extinction/emission = 360 nm/460 nm). The inhibitory effect of the test compounds is indirectly proportional to the amount of converted fluorescent substrate standardized as 100% activity of the control without inhibitor. The test substances were tested in 10-dose IC50 triplicate mode, with 3-fold serial dilution starting at 50 μM final reaction concentration and if necessary, starting at 100 μM. For each serially diluted replicate of the triplicate, an IC50 value was determined by sigmoidal curve fitting, resulting in three IC50 values, from which the mean and corresponding standard deviation were subsequently calculated. Data processing was performed based on Prism 8.0.2 software (GraphPad Software, Boston, USA). Subtype selectivity on SIRT1, SIRT3 and SIRT5 was evaluated in a single dose duplicate mode at 50 μM final test compound concentration according to previous outlined internal protocol of Reaction Biology Corporation by determining the enzyme activity of the respective sirtuins in % (no inhibitor control as 100% activity).

Assay [2] addresses T2, NanoLuc-SIRT2 fusion construct (Homo sapiens, UniProt Q8IXJ6).
T2 construct: HEK293T cells expressing the NanoLuc-tagged SIRT2(50-356) fusion protein were used; expressed in transfected cells; transient transfection for SH10
T2 sequence (Q8IXJ6 50-356): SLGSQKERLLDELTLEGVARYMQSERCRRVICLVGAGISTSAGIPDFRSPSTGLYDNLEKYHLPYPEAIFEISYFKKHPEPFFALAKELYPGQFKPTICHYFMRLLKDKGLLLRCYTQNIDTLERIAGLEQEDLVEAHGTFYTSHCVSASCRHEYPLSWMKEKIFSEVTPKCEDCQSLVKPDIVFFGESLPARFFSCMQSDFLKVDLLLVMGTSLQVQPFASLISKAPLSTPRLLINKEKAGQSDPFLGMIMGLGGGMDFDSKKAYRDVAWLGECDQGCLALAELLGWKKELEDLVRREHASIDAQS
The assay is described as follows: NanoBRET cellular target engagement assay in HEK293T cells. Type of assay: cell-based. The following applies: stable HEK293T cell line expressing NanoLuc-SIRT2; 2 μM tracer; 2 hours at 37 °C; read-out: NanoBRET EC50 (cellular SIRT2 target engagement). (BRET reads energy transfer from a luciferase to a nearby fluorophore.)
Experimental: For the assay, cells were trypsinized, resuspended in Opti-MEM® reduced serum medium, and adjusted to a concentration of 2 × 10^5 cells per mL. […] Serially diluted inhibitor and tracer were added to the cell suspension, and 100 μL were seeded into 96-well white, sterile, nonbinding surface plates. […] For BRET measurements, NanoBRET NanoGlo Substrate (Promega cat. #N1571) was added to the wells according to the manufacturer's protocol. […] The BRET ratio was calculated as the ratio of acceptor to donor signal, and data were normalized to vehicle-treated controls. Apparent intracellular binding affinities (EC50 values) were determined by fitting dose–response curves using nonlinear regression analysis in GraphPad Prism.

For `Cc1cc(C)nc(SCC(=O)Nc2cccc(COc3ccc(NC(=O)c4cnn(C)c4)c(Cl)c3)c2)n1` [Compound 29, N-(2-Chloro-4-((3-(2-((4,6-dimethylpyrimidin-2-yl)thio)acetamido)benzyl)oxy)phenyl)-1-methyl-1H-pyrazole-4-carboxamide], the inhibition at 50 µM in assay [1] was determined as 7%. For the same molecule, the EC50 in assay [2] turned out to be 15 nM.
